pIC50: −log10 of the molar value. Like-named read-outs stand apart in the source and are kept apart here.
Columns and labels:
[1] = WST-1 cytotoxicity assay on RPMI1788 cells (B-cell line); type: cell-based, human; settings: human, RPMI1788 cells (B-cell line), mean of 4 independent measures, read-out: Cytotoxicity, WST-1 RPMI 1788 IC 50 (µM) Mean
human CD19+ B cells = experiment: B-cell assay: IgG production of ODN2006-stimulated primary B cells (AlphaLISA); type: cell-based; settings: Homo sapiens, B-cell; for pIC50: 168 h, IgG production, ODN2006 0.1 μM, 7 days, mean of 4 independent experiments, read-out: B-cell IC50
[2] = WST-1 cytotoxicity assay on Jurkat cells (T-cell line); type: cell-based, human; settings: human, Jurkat cells (T-cell line), mean of 4 independent measures, read-out: Cytotoxicity, WST-1 Jurkat IC 50 (µM) Mean
Description: Compounds were prepared as 10 mM stock solutions in dimethylsulfoxide (DMSO)and were tested at 50-10-1-0.1-0.01 and 0.001 μM in the 4 assays.
The human B cell line RPMI1788 (American Type Culture Collection, USA) and the human T cell line Jurkat (European Collection of Cell Cultures, ECACC, England) were maintained in RPMI1640 culture medium (BioWhittaker®, Lonza, Verviers, Belgium) containing 10% foetal calf serum (FCS, HyClone® Thermo Scientific, United Kingdom) and 5 μg/mL gentamicin sulphate (BioWhittaker®, Lonza, Verviers, Belgium) at 37°C and 5% CO2.
WST-1 assays on RPMI-1788 cells and Jurkat cells were performed as follows: 20 μL of test compound dilution were added to each well containing exponential growing cells and the plates were incubated for 48 h at 37°C, 5% CO2. Untreated cells and positive control (1% triton X-100, for the last 15 min) served as reference for maximum and minimum viability. At the end of incubation 100 μL of supernatant were removed and replaced by 10 μL of WST-1 solution (Cell Proliferation Reagent WST-1, Roche Applied Science).

[3] = system: human PBMCs (responder cells) with RPMI1788 stimulator cells; experiment: Mixed Lymphocyte Reaction (MLR, T cell assay), 3H-thymidine incorporation; type: cell-based; settings: for IC50: Homo sapiens, RPMI-1788, mean of 4 independent measures, read-out: T-cell efficacy, MLR IC 50 (µM) Mean; for Selectivity Index (SI) MLR/B-cell: ratio of IC50 values
VEGFR2 = VEGFR2 (Homo sapiens, UniProt P35968); experiment: Kinase activity test (ReactionBiology), % enzyme activity relative to DMSO; type: biochemical; design: purchased ReactionBiology; settings: VEGFR2;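 also: VEGFR2 was one member of a ten-kinase screening panel testing marketed FDA-approved drugs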
Sequence of VEGFR2 (P35968 20-1356): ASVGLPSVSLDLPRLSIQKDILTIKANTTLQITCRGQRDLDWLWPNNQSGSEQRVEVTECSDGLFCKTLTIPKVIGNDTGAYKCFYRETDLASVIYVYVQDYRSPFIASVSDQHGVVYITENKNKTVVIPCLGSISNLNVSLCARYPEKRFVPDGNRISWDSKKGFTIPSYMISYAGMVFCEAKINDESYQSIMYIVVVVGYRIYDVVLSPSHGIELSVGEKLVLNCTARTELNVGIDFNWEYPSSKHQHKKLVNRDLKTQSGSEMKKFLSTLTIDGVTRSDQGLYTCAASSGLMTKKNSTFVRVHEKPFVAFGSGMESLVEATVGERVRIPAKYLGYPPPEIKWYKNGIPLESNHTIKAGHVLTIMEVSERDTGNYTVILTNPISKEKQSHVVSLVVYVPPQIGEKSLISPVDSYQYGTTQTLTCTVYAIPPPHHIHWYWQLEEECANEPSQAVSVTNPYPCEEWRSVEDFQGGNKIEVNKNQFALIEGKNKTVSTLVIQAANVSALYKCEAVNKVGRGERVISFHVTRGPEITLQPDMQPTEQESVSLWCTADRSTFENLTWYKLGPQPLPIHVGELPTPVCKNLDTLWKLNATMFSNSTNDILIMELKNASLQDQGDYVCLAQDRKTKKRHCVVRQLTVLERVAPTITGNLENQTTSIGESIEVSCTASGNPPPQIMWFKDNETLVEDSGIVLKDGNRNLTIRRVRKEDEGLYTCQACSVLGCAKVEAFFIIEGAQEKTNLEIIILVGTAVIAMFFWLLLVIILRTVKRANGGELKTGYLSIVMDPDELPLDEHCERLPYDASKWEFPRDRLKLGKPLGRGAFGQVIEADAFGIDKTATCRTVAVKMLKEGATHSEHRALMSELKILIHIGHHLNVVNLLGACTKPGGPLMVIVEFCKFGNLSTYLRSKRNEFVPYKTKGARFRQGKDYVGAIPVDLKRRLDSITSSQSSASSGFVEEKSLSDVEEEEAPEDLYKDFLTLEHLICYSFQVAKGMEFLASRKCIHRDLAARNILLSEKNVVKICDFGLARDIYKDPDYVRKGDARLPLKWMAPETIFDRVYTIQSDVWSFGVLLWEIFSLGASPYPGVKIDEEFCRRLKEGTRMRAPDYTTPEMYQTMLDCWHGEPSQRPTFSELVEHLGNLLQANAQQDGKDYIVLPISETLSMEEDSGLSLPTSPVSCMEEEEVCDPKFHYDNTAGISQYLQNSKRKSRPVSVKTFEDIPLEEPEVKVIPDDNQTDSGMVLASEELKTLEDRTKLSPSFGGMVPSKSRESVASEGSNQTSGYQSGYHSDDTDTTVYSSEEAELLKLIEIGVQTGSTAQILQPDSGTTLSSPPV

NEK2 = molecular target: T1, NEK2 (Homo sapiens, UniProt P51955); experiment: as above; type: biochemical;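 also: FDA-approved drugs chosen by structure-based repositioning, each screened at 10 or 1 µM for kinase activity, expressed as percent of DMSO controls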
T1 construct: purchased ReactionBiology
T1 sequence (P51955 1-445): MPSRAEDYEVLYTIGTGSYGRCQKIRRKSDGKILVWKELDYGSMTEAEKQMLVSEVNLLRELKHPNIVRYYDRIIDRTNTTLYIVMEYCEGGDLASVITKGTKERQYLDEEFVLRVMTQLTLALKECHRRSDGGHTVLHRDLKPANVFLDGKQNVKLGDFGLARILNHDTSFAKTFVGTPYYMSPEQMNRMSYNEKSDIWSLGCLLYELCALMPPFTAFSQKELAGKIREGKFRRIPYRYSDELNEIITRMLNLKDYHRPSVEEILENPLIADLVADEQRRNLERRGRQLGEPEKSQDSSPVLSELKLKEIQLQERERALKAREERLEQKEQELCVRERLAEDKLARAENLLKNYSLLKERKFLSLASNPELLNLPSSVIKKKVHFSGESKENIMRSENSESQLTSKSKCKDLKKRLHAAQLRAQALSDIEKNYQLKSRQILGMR

CK1d = molecular target: T2, CK1d (Homo sapiens, UniProt P48730); experiment: as above; type: biochemical; settings: CK1d
T2 construct: purchased ReactionBiology
T2 sequence (P48730 whole entry): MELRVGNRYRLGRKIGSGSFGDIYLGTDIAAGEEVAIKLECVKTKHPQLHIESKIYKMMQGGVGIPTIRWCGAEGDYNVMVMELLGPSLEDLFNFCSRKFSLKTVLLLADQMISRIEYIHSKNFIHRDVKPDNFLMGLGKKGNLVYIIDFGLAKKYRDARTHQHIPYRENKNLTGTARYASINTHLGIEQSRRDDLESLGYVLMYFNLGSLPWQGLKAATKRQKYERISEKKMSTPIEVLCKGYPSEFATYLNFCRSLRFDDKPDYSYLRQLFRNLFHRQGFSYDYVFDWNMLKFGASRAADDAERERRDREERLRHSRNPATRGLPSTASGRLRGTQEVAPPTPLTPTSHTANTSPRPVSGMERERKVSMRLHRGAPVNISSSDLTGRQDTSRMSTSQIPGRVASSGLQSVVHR

DAPK1 = molecular target: T3, DAPK1 (Homo sapiens, UniProt P53355); experiment: as above; type: biochemical; settings: DAPK1
T3 construct: purchased ReactionBiology
T3 sequence (P53355 whole entry): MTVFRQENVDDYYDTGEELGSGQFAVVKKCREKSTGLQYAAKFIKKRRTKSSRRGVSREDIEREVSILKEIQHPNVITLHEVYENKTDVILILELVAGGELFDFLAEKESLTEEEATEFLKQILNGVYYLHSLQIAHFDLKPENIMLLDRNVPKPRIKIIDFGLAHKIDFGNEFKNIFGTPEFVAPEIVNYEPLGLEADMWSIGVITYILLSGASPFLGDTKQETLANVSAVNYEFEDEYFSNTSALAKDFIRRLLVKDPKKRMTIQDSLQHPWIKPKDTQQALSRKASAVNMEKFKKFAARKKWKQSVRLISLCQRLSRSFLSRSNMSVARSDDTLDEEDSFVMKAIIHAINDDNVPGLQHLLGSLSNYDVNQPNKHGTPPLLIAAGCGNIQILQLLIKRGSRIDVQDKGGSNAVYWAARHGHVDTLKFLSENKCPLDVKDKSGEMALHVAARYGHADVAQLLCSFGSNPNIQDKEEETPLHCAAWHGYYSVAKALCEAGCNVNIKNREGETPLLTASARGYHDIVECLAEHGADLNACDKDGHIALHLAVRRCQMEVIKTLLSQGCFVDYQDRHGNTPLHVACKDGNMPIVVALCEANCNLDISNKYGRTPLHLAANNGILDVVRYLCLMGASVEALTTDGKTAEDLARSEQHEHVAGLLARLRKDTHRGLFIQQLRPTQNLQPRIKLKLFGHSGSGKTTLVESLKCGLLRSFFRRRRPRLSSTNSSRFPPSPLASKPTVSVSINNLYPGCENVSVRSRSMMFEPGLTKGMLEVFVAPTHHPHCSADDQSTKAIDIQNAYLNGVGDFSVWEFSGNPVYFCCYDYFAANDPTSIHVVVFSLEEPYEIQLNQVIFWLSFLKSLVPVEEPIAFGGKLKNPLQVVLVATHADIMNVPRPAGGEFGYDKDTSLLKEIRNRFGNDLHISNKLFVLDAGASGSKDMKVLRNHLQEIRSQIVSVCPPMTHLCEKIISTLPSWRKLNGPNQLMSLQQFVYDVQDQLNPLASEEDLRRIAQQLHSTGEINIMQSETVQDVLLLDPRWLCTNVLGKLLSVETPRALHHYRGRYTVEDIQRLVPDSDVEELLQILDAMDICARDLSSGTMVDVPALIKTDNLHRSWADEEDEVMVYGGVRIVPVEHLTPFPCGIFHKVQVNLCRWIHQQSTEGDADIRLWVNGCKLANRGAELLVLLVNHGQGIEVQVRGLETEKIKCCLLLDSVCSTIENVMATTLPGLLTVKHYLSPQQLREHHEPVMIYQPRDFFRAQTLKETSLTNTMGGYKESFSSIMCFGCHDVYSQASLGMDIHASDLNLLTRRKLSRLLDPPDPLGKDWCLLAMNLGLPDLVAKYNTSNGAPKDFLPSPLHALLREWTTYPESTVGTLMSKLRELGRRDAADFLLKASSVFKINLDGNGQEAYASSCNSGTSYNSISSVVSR

[4] = 1 uM, Average, read-out: % Enzyme Activity (relative to DMSO controls), Average
[5] = 1 uM, replicate Data 1, read-out: % Enzyme Activity (relative to DMSO controls), Data 1
[6] = 1 uM, replicate Data 2, read-out: % Enzyme Activity (relative to DMSO controls), Data 2
[7] = 10 uM, Average, read-out: % Enzyme Activity (relative to DMSO controls), Average
[8] = 10 uM, replicate Data 1, read-out: % Enzyme Activity (relative to DMSO controls), Data 1
[9] = 10 uM, replicate Data 2, read-out: % Enzyme Activity (relative to DMSO controls), Data 2
[10] = compound 1μM, relative to DMSO controls, read-out: % Enzyme activity at 1μM
[11] = compound 10μM, relative to DMSO controls, read-out: % Enzyme activity at 10μM
[12] = NEK2, 1 uM, Average, read-out: % Enzyme Activity (relative to DMSO controls), Average
[13] = NEK2, 1 uM, replicate Data 1, read-out: % Enzyme Activity (relative to DMSO controls), Data 1
[14] = NEK2, 1 uM, replicate Data 2, read-out: % Enzyme Activity (relative to DMSO controls), Data 2
[15] = NEK2, 10 uM, Average, read-out: % Enzyme Activity (relative to DMSO controls), Average
[16] = NEK2, 10 uM, replicate Data 1, read-out: % Enzyme Activity (relative to DMSO controls), Data 1
[17] = NEK2, 10 uM, replicate Data 2, read-out: % Enzyme Activity (relative to DMSO controls), Data 2
[18] = NEK2, compound 1μM, relative to DMSO controls, read-out: % Enzyme activity at 1μM
[19] = NEK2, compound 10μM, relative to DMSO controls, read-out: % Enzyme activity at 10μM
[20] = read-out: % Enzyme Activity (relative to DMSO controls), Average
[21] = read-out: % Enzyme Activity (relative to DMSO controls), Data 1
[22] = read-out: % Enzyme Activity (relative to DMSO controls), Data 2

| pIC50 (human CD19+ B cells) | remaining activity at 1 µM (NEK2; [12]) | remaining activity at 1 µM (NEK2; [13]) | remaining activity at 1 µM (NEK2; [14]) | remaining activity at 10 µM (NEK2; [15]) | remaining activity at 10 µM (NEK2; [16]) | remaining activity at 10 µM (NEK2; [17]) | remaining activity at 1 µM (NEK2; [18]) | remaining activity at 10 µM (NEK2; [19]) | SMILES | IC50 at 48 h [1] | IC50 at 48 h [2] | IC50 [3] | Selectivity Index (SI) MLR/B-cell [3] | further results |
| --- | --- | --- | --- | --- | --- | --- | --- | --- | --- | --- | --- | --- | --- | --- |
| 5.23 | – | – | – | – | – | – | – | – | Cc1cc(C#N)cc(C)c1Oc1nc(Nc2ccc(C#N)cc2)nc(N)c1Br [Etravirine, reference compound] | 8 µM | 30.4 µM | 7.27 µM | 1.23 | remaining activity at 1 µM (VEGFR2; [4]): 108%; remaining activity at 1 µM (VEGFR2; [5]): 108%; remaining activity at 1 µM (VEGFR2; [6]): 108%; remaining activity at 10 µM (VEGFR2; [7]): 41.1%; remaining activity at 10 µM (VEGFR2; [8]): 42.6%; remaining activity at 10 µM (VEGFR2; [9]): 39.5%; remaining activity at 1 µM (VEGFR2; [10]): 108%; remaining activity at 10 µM (VEGFR2; [11]): 41.1% |
| 6.23 | 104% | 104% | 104% | 51.6% | 49% | 54.1% | 104% | 51.6% | Nc1ccc2cc3ccc(N)cc3nc2c1 [Proflavine, reference compound] | 3.01 µM | 5 µM | 4.39 µM | 7.5 | – |

Second part, the compound before the results:

| SMILES | pIC50 (human CD19+ B cells) | remaining activity at 1 µM (NEK2; [12]) | remaining activity at 1 µM (NEK2; [13]) | remaining activity at 1 µM (NEK2; [14]) | remaining activity at 10 µM (NEK2; [15]) | remaining activity at 10 µM (NEK2; [16]) | remaining activity at 10 µM (NEK2; [17]) | remaining activity at 1 µM (NEK2; [18]) | remaining activity at 10 µM (NEK2; [19]) | IC50 at 48 h [1] | IC50 at 48 h [2] | IC50 [3] | Selectivity Index (SI) MLR/B-cell [3] | further results |
| --- | --- | --- | --- | --- | --- | --- | --- | --- | --- | --- | --- | --- | --- | --- |
| CN1CCN(CCCN2c3ccccc3Sc3ccc(Cl)cc32)CC1 [Prochlorperazine, reference compound] | – | 70.1% | 67.7% | 72.5% | 68.7% | 69.6% | 67.8% | 70.1% | 68.7% | 9.63 µM | 21.9 µM | – | – | – |
| Oc1c(Cl)cc(Cl)c(Cl)c1Cc1c(O)c(Cl)cc(Cl)c1Cl [Hexachlorophene, reference compound] | 5.27 | – | – | – | – | – | – | – | – | 4.2 µM | 5.88 µM | 1.42 µM | – | remaining activity at 1 µM (NEK2; [20]): 84.9%; remaining activity at 10 µM (NEK2; [20]): 0.02%; remaining activity at 1 µM (NEK2; [21]): 85.4%; remaining activity at 10 µM (NEK2; [21]): -0.21%; remaining activity at 1 µM (NEK2; [22]): 84.5%; remaining activity at 10 µM (NEK2; [22]): 0.25%; remaining activity at 1 µM (NEK2; read-out: % Enzyme activity at 1μM): 84.9%; remaining activity at 10 µM (NEK2; read-out: % Enzyme activity at 10μM): 0.02% |
| CC/C(=C(/CC)c1ccc(O)cc1)c1ccc(O)cc1 [Diethylstilbestrol, reference compound] | – | 97.9% | 94.5% | 101% | 50.7% | 44.7% | 56.7% | 97.9% | 50.7% | 31.4 µM | 6.7 µM | – | – | remaining activity at 1 µM (CK1d; [4]): 106%; remaining activity at 1 µM (CK1d; [5]): 107%; remaining activity at 1 µM (CK1d; [6]): 104%; remaining activity at 10 µM (CK1d; [7]): 84.8%; remaining activity at 10 µM (CK1d; [8]): 84.6%; remaining activity at 10 µM (CK1d; [9]): 85.1% |
| C=CC(=O)N1CCC[C@@H](n2nc(-c3ccc(Oc4ccccc4)cc3)c3c(N)ncnc32)C1 [Ibrutinib, reference compound] | 9.70 | – | – | – | – | – | – | – | – | 0.7 µM | 14.7 µM | 1 µM | – | IC50 (human CD19+ B cells; mean of 4 independent measures, read-out: B-cell efficacy, B cell IC 50 (µM) Mean): 0.000181 µM; remaining activity at 1 µM (VEGFR2; [4]): 19.5%; remaining activity at 1 µM (VEGFR2; [5]): 19.6%; remaining activity at 1 µM (VEGFR2; [6]): 19.5%; remaining activity at 10 µM (VEGFR2; [8]): 1.46%; remaining activity at 10 µM (VEGFR2; [9]): 1.53%; inhibition of the kinase activity (strong/weak) (VEGFR2; at 10 and 1 μM): strong (We considered a 50% inhibition of the kinase activity as strong); remaining activity at 1 µM (VEGFR2; [10]): 19.5%; remaining activity at 1 µM (DAPK1; [4]): 95.6%; remaining activity at 1 µM (DAPK1; [5]): 97.4%; remaining activity at 1 µM (DAPK1; [6]): 93.8%; remaining activity at 10 µM (DAPK1; [7]): 23.7%; remaining activity at 10 µM (DAPK1; [8]): 24%; remaining activity at 10 µM (DAPK1; [9]): 23.5%; remaining activity at 1 µM (DAPK1; [10]): 95.6%; remaining activity at 10 µM (DAPK1; [11]): 23.7% |
| CCN(CC)Cc1cc(Nc2ccnc3cc(Cl)ccc23)ccc1O [Amodiaquine, reference compound] | 6.18 | – | – | – | – | – | – | – | – | 28.1 µM | 26.2 µM | 9.78 µM | 14.73 | remaining activity at 1 µM (CK1d; [4]): 107%; remaining activity at 1 µM (CK1d; [5]): 106%; remaining activity at 1 µM (CK1d; [6]): 108%; remaining activity at 10 µM (CK1d; [7]): 69.1%; remaining activity at 10 µM (CK1d; [8]): 70.5%; remaining activity at 10 µM (CK1d; [9]): 67.6%; remaining activity at 1 µM (CK1d; [10]): 107%; remaining activity at 10 µM (CK1d; [11]): 69.1% |

— PMC7252619 (PLoS ONE, 2020)
